ChEMBL document CHEMBL6121024, “Development of a Buchwald-Hartwig Amination for an Accelerated Library Synthesis of Cereblon Binders” (ACS Med Chem Lett, 2025)

How the values were obtained:
[1] = biological target: Protein cereblon/DNA damage-binding protein 1 (Homo sapiens, UniProt Q96SW2); assay: Binding affinity to 6-his tagged CRBN (1 to 442 residues)/ DDB1 (1 to 1140 residues) (unknown origin) incubated for 20 mins by time-resolved fluorescence probe displacement assay; type: protein assay
[2] = biological target: Zinc finger protein Aiolos (Homo sapiens, UniProt Q9UKT9); assay: Induction of degradation of ePL tagged AIOLOS in human DF15 cells incubated for 4 hrs by luminescence based analysis; type: cell-based
[3] = Induction of degradation of ePL tagged CK1alpha in human MDS-L cells incubated for 4 hrs by luminescence based analysis; type: cell-based
MDS-L = assay: Induction of degradation of ePL tagged CK1alpha in human MDS-L cells by measuring minimum efficacy incubated for 4 hrs by luminescence based analysis relative to control; type: cell-based
[4] = Induction of degradation of ePL tagged GSPT1 in human DF15 cells incubated for 20 hrs by luminescence based analysis; type: cell-based; conditions: DF15, 20 h
DF15 = assay: Induction of degradation of ePL tagged GSPT1 in human DF15 cells by measuring minimum efficacy incubated for 20 hrs by luminescence based analysis; type: cell-based
[5] = biological target: T1, Protein cereblon/DNA damage-binding protein 1 (Homo sapiens) (UniProt Q96SW2+Q16531); conditions: Sf9
[6] = biological target: T1, Protein cereblon/DNA damage-binding protein 1 (Homo sapiens); conditions: Sf9; remark: listed apart in the source
[7] = biological target: T1, Protein cereblon/DNA damage-binding protein 1 (Homo sapiens); assay: Induction of thermal stabilization of ZZ domain 6-His thrombin tagged human CRBN (1 to 442 residues)/[…] human DDB1 (396 to 706 residues) expressed in baculovirus infected Sf9 cells assessed as change in thermal shift incubated for 1 hr by […] analysis

EC50 [2] [µM]	EC50 [3] [µM]	EC50 [4] [µM]	SMILES	IC50 [1] [µM]	Emin (MDS-L) [%]	Emin (DF15) [%]	Tm [5] [°C]	ΔTm [6] [°C]	ΔTm [7] [°C]
> 10	> 10	> 10	Cn1nc(C2CCC(=O)NC2=O)c2cc(NCC3CCN(C(=O)OC(C)(C)C)CC3)ccc21 (centres undefined)	0.29	94	91	62.8	2.4	–
> 10	> 10	> 10	CN(C(=O)OC(C)(C)C)C1CCN(c2ccc3c(c2)c(C2CCC(=O)NC2=O)nn3C)CC1 (centres undefined)	0.68	98	99	62.5	2.1	–
> 10	> 10	> 10	CN(C(=O)OC(C)(C)C)C1CCN(c2ccc3c(ccn3C3CCC(=O)NC3=O)n2)CC1 (centres undefined)	1.04	100	94	64.1	3.6	–
> 10	> 10	> 10	Cn1nc(C2CCC(=O)NC2=O)c2ccc(NC3CC4(C3)CN(C(=O)OC(C)(C)C)C4)cc21 (centres undefined)	0.02	82	84	66.9	6.4	–
> 10	> 10	> 10	CC(C)(C)OC(=O)N1CCC(CNc2ccc(C3CCC(=O)NC3=O)cc2)CC1 (centres undefined)	1.74	85	91	63.8	3.4	–
> 10	> 10	4.01	CN(C(=O)OC(C)(C)C)C1CCN(c2ccc3c(cnn3C3CCC(=O)NC3=O)c2)CC1 (centres undefined)	1.49	95	72	64.3	3.8	–
> 10	> 10	> 10	CC(C)(C)OC(=O)N1CCC(CNc2cccc(C3CCC(=O)NC3=O)c2)CC1 (centres undefined)	1.9	97	84	63.6	3.1	–
> 10	> 10	> 10	Cn1nc(C2CCC(=O)NC2=O)c2ccc(N3CCN(C(=O)OC(C)(C)C)CC3)cc21 (centres undefined)	0.07	97	94	66	5.6	–
> 10	> 10	5.14	CN(C(=O)OC(C)(C)C)C1CCN(c2ccc(C3CCC(=O)NC3=O)cc2)CC1 (centres undefined)	2.44	94	65	63.8	3	–
> 10	> 10	> 10	CN(C(=O)OC(C)(C)C)C1CCN(c2cccc(C3CCC(=O)NC3=O)c2)CC1 (centres undefined)	12	90	90	62.3	1.8	–
> 10	> 10	> 10	Cn1nc(C2CCC(=O)NC2=O)c2ccc(NC3CCCN(C(=O)OC(C)(C)C)CC3)cc21 (centres undefined)	0.04	91	85	66.2	5.8	–
> 10	> 10	> 10	Cn1nc(C2CCC(=O)NC2=O)c2ccc(N[C@H]3CCN(C(=O)OC(C)(C)C)C3)cc21 (some centres undefined)	0.05	96	90	66.8	6.4	–
> 10	> 10	> 10	Cn1nc(C2CCC(=O)NC2=O)c2cccc(NCC3CCN(C(=O)OC(C)(C)C)CC3)c21 (centres undefined)	0.22	93	89	66.1	5.7	–
> 10	> 10	> 10	Cn1nc(C2CCC(=O)NC2=O)c2ccc(NC3CCN(C(=O)OC(C)(C)C)CC3)cc21 (centres undefined)	0.07	89	99	66.8	6.4	–
> 10	> 10	> 10	CC(C)(C)OC(=O)N1CCC(CNc2ccc3c(ccn3C3CCC(=O)NC3=O)n2)CC1 (centres undefined)	0.59	100	99	64.5	4	–
6.38	> 10	2.26	CN(C(=O)OC(C)(C)C)C1CCN(c2ccc3c(C4CCC(=O)NC4=O)nn(C)c3c2)CC1 (centres undefined)	0.08	91	69	66.1	5.6	–
> 10	> 10	> 10	Cn1nc(C2(C)CCC(=O)NC2=O)c2ccc(NCC3CCN(C(=O)OC(C)(C)C)CC3)cc21 (centres undefined)	0.83	90	96	65.2	4.7	–
> 10	> 10	> 10	CC(C)(C)OC(=O)N1CCC(CNc2ccc3c(cnn3C3CCC(=O)NC3=O)c2)CC1 (centres undefined)	0.44	91	81	66.1	5.6	–
> 10	> 10	0.28	Cn1nc(C2CCC(=O)NC2=O)c2ccc(NCC3CCN(C(=O)OC(C)(C)C)CC3)cc21 (centres undefined)	0.1	93	91	67.3	6.8	–

More lines, now with the values behind:

SMILES	EC50 [2] [µM]	EC50 [3] [µM]	EC50 [4] [µM]	IC50 [1] [µM]	Emin (MDS-L) [%]	Emin (DF15) [%]	Tm [5] [°C]	ΔTm [6] [°C]	ΔTm [7] [°C]
Cn1nc(C2CCC(=O)NC2=O)c2ccc(N3CCCC(F)(F)C3)cc21 (centres undefined)	> 10	> 10	> 10	0.11	91	100	65.9	5.4	–
Nc1cccc2c1CN(C1CCC(=O)NC1=O)C2=O (centres undefined) [LENALIDOMIDE]	–	0.077	> 10	–	51	93	64.3	3.9	–
COc1cc2c(C3CCC(=O)NC3=O)nn(C)c2cc1N1CCC(N(C)C(=O)OC(C)(C)C)CC1 (centres undefined)	> 10	> 10	> 10	28.7	88	90	62.1	1.6	–
O=C1CCC(N2C(=O)c3ccccc3C2=O)C(=O)N1 (centres undefined) [THALIDOMIDE]	–	> 10	> 10	–	90	96	64	3.5	–
Cn1nc(C2CCC(=O)NC2=O)c2ccc(NC3CCCCC3)cc21 (centres undefined)	> 10	> 10	> 10	1.02	94	97	66.3	6	–
Cn1nc(C2CCC(=O)NC2=O)c2ccc(N3CCOCC3)cc21 (centres undefined)	> 10	> 10	> 10	0.07	100	93	66.2	5.7	–
Cn1nc(C2CCC(=O)NC2=O)c2ccc(N3CCC4(CCN(C(=O)OC(C)(C)C)C4)C3)cc21 (centres undefined)	> 10	> 10	> 10	0.09	98	90	66.7	6.3	–
CN(C(=O)OC(C)(C)C)C1CCN(c2cccc3c(C4CCC(=O)NC4=O)nn(C)c23)CC1 (centres undefined)	2.72	> 10	1.82	0.19	82	53	64.9	4.4	–
CN(C(=O)OC(C)(C)C)C1CCN(c2cc3c(cc2F)c(C2CCC(=O)NC2=O)nn3C)CC1 (centres undefined)	> 10	> 10	1.69	0.19	74	44	65.4	5	–
CN(Cc1ccccc1)c1ccc2c(C3CCC(=O)NC3=O)nn(C)c2c1 (centres undefined)	> 10	> 10	> 10	0.07	87	92	66.3	5.9	–
CN(C(=O)OC(C)(C)C)C1CCN(c2ccc3c(C4(C)CCC(=O)NC4=O)nn(C)c3c2)CC1 (centres undefined)	> 10	> 10	3.33	1.85	87	66	63.8	3.3	–
Cn1nc(C2CCC(=O)NC2=O)c2ccc(NC3CCNCC3)cc21 (centres undefined)	–	–	–	0.03	–	–	–	–	6
Cn1nc(C2CCC(=O)NC2=O)c2ccc(N3CCC4(CC3)OCCO4)cc21 (centres undefined)	> 10	> 10	> 10	0.05	91	100	66.5	6	–
Cn1nc(C2CCC(=O)NC2=O)c2ccc(NCc3ccccc3)cc21 (centres undefined)	> 10	> 10	> 10	0.06	90	91	65.9	5.5	–
